In this assay the test system is female NMRI mice. Kind of assay: Anorectic action: milk consumption of fasted mice after oral administration. Type of assay: in vivo, mouse. On the procedure:
The efficacy of the compounds was tested as follows:
The anorectic action was tested on female NMRI mice. After withdrawal of food for 24 hours, a test preparation of the invention was administered via a stomach tube. Kept individually and with free access to drinking water, the animals were offered evaporated milk 30 minutes after the administration of the preparation. The consumption of evaporated milk was determined half-hourly for 1.5 hours and the general condition of the animals was observed. The measured milk consumption was compared with that of untreated control animals.

Regarding `OC1c2cc(Cl)ccc2C2(O)N=C(c3ccccc3)SC12` (centres unmarked) [Example 1, 6-Chloro-2-phenyl-8,8a-dihydroindeno[1,2-d]thiazole-3a,8-diol], the “cumulated milk consumption of the treated animals” value (food withdrawn for 24 hours, oral dose 30 mg/kg via stomach tube, evaporated milk offered 30 minutes after administration, consumption determined half-hourly for 1.5 hours) was 5/1.06 ml. The “Reduction of the cumulated milk consumption in % of the control” value (oral dose 30 mg/kg, compared to untreated control animals, 1.5 hours) worked out at 31%.
